Measurements as given in ChEMBL document CHEMBL6127140, “Bicyclic Ureas as JAK2 Inhibitors for Treating Hematological Cancer” (ACS Med Chem Lett, 2024).

Assay: Binding affinity to C-terminal his-Avi-tagged human JAK2 JH-2 domain (536 to 812 residues) W659A/W777A/F794H mutant expressed in baculovirus expression system incubated for 1 hr in presence of JAK2 JH2 tracer and ATP by Lanthascreen assay
In the case of `COC(=O)N[C@@H]1CC[C@@H](n2c(=O)n(C)c3cnc(Nc4cccc(-c5ccc(OC)nc5)n4)cc32)C1`, the IC50 is reported as ≤ 10 nM. With `COC(=O)N[C@@H]1CC[C@@H](n2c(=O)n(C)c3cnc(Nc4cccc(-c5ccc6c(c5)OCCO6)n4)cc32)C1` the IC50 was ≤ 10 nM. For `COC(=O)N[C@@H]1CC[C@@H](n2c(=O)n(C)c3cnc(Nc4cc(C)nc(N5CCC(F)(F)C5)n4)cc32)C1`, the IC50 was ≤ 10 nM. In the case of `COC(=O)N[C@@H]1CC[C@@H](n2c(=O)n(C)c3cnc(Nc4ccc(F)c(-c5ccc(C6CC6)cc5)n4)cc32)C1`, the IC50 is reported as ≤ 10 nM. For `COC(=O)N[C@@H]1CC[C@@H](n2c(=O)n(C)c3cnc(Nc4cccc(-c5ccc6[nH]nc(C)c6c5)n4)cc32)C1`, the IC50 was ≤ 10 nM. In the case of `COC(=O)N[C@@H]1CC[C@@H](n2c(=O)n(C)c3cnc(Nc4ccnc(N5CCCCC5)n4)cc32)C1`, the IC50 is reported as ≤ 10 nM.
